In patent EP4610262A1, “MACROCYCLIC COMPOUND AS CDK9 INHIBITOR AND USE THEREOF” (Artivila Biopharma, priority 2022, dated 2024):

How the values were obtained:
A375 = assay: CDK9 cell activity assay, cell growth inhibition (CellTiter-Glo, 72 hours); type: cell-based; details: Homo sapiens, A-375
Method: (§1) In the CDK9 cell activity assay, the cell line MV-4-11 was cultured in IMDM culture medium containing 10% fetal bovine serum (containing 100 U/mL penicillin and 0.1 g/L streptomycin); the cell line HCC1187 was cultured in RPMI-1640 culture medium containing 10% fetal bovine serum (containing 100 U/mL penicillin and 0.1 g/L streptomycin); the cell line Mia Paca-2 was cultured in DMEM containing 10% fetal bovine serum and 2.5% horse serum (containing 100 U/mL penicillin and 0.1 g/L streptomycin); and the cell line A375 was cultured in RPMI-1640 culture medium containing 10% fetal bovine serum (containing 100 U/mL penicillin and 0.1 g/L streptomycin). All cells were cultured in an incubator with saturated humidity at 37°C with 5% CO2.
(§2) When MV-4-11 cells, HCC1187 cells, Mia Paca-2 cells, and A375 cells grew to 80%-90% confluence, they were digested with trypsin, resuspended, counted, and diluted to a certain cell density with complete medium. 100 µL of the cells was plated into each well of a 96-well plate, and the complete medium was used as a background control. The cells were cultured overnight in an incubator with saturated humidity at 37°C with 5% CO2. The compounds were diluted with DMSO to a final concentration of 200×. 3 µL of the stock solution of the above compounds in DMSO was added to 197 µL of complete medium, and 50 µL of the compound diluted in the medium was added to the cells of each well. The cells were cultured in an incubator with saturated humidity at 37°C with 5% CO2 for 72 hours. After 72 hours, the culture plates were placed at room temperature for equilibrium. 40 µL of CellTiter-Glo® reagent was added to each well. The plate was mixed evenly on a shaker for 2 minutes to lyse the cells then incubated at room temperature for 60 minutes to stabilize the chemiluminescent signal, and the chemiluminescence was read using a PE EnVision microplate reader. The inhibition rate on cell growth was calculated as % Inh = (DMSO well - compound treatment well) / (DMSO well - background well) x 100, and fitting was performed using GraphPad Prism 5 to obtain the IC50 values against cell growth.

HCC1187 = assay: as above; type: cell-based; details: Homo sapiens
Method: as §1, §2

Mia-Paca-2 = assay: as above; type: cell-based; details: Homo sapiens
Method: as §1, §2

MV-4-11 = assay: as above; type: cell-based; details: Homo sapiens, MV4-11
Method: as §1, §2

CDK6/CycD3 = CDK6/CycD3 (Homo sapiens, UniProt Q00534); assay: CDK kinase selectivity (HTRF / ADP-Glo); type: biochemical; details: compound at 0.1 µM; read-out: Inhibition rate CDK6/CycD3
Method: (§3) The selectivity of the test compounds against CDK kinases was detected. The compounds were tested at a concentration of 0.1 µM, and the inhibition rate of CDK kinases by the compounds was detected in duplicate wells, mainly using HTRF and ADP-Glo detection methods.
(§4) The HTRF detection method was conducted as follows: 2-fold ATP/substrate solution and 2-fold kinase/metal ion solution were prepared respectively with a kinase reaction buffer, and 25 nL of diluted compound solution was transferred to a 384-well detection plate with Echo 655. After centrifugation, the plate was added with 2.5 µL of 2-fold kinase/metal ion solution and incubated at 25°C for 10 minutes. After 10 minutes, 2.5 µL of 2-fold substrate/ATP solution was added to the 384-well detection plate and incubated at 25°C for 60 minutes. 2 kinase detection reagent (XL665 and antibody) was prepared with detection buffer, and 5 µL of kinase detection reagent was added to the 384-well detection plate and incubated at 25°C for 60 minutes. The fluorescence signals at 620 nm (Cryptate) and 665 nm (XL665) were read by the microplate reader, and the ratio and the inhibition rate of kinase activity by the compound were calculated.
(§5) The ADP-Glo detection method was conducted as follows. 2-fold ATP/substrate solution and 2-fold kinase/metal ion solution were prepared respectively with a kinase reaction buffer. 20 nL of diluted compound solution was transferred to a 384-well detection plate by Echo 655. After centrifuged, the 384-well detection plate was added with 2 µL of 2 × kinase/metal ion solution, and incubated at 25°C for 10 minutes. After 10 minutes, the 384-well detection plate was added with 2 µL of 2 × substrate/ATP solution and incubated at 25°C for 60 minutes. 4 µL of ADP-Glo reagent was added to each well and incubated at room temperature for 40 minutes. 10 µL of ADP detection reagent was added to each well and incubated at room temperature for 40 minutes. The chemiluminescent signal was detected with a microplate reader and the inhibition rate of kinase activity was calculated.

CDK19/CycC = CDK19/CycC (Homo sapiens, UniProt Q9BWU1); assay: CDK kinase selectivity (HTRF / ADP-Glo); type: biochemical; details: compound at 0.1 µM; read-out: Inhibition rate CDK19/CycC
CDK19/CycC, sequence (Q9BWU1 whole entry): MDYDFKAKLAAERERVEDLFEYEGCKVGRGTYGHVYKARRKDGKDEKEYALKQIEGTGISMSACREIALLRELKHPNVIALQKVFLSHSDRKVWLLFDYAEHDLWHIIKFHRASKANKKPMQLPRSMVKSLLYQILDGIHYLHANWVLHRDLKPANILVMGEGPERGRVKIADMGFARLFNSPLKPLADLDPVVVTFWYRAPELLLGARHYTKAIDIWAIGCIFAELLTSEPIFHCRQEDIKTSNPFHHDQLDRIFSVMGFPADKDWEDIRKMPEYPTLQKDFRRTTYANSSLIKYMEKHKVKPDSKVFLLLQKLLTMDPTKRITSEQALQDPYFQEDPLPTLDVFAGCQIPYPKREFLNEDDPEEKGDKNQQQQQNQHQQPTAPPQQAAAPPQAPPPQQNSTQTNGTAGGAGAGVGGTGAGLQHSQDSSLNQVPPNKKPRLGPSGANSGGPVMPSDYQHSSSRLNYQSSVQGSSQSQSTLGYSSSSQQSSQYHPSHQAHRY
CDK19/CycC, sequence (P24863 whole entry partner): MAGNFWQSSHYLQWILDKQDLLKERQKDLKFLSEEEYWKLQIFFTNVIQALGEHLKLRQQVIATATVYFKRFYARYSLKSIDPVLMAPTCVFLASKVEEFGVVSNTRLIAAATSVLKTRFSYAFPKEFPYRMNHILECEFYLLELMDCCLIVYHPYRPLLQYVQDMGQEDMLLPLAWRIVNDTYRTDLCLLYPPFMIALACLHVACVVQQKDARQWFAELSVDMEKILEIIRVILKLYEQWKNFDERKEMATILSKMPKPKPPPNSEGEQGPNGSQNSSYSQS
Method: as §3, §4, §5

CDK2/CyCA2 = CDK2/CyCA2 (Homo sapiens, UniProt P24941); assay: CDK kinase selectivity (HTRF / ADP-Glo); type: biochemical; details: compound at 0.1 µM; read-out: Inhibition rate CDK2/CyCA2
Method: as §3, §4, §5

CDK4/CycD3 = CDK4/CycD3 (Homo sapiens, UniProt P11802); assay: CDK kinase selectivity (HTRF / ADP-Glo); type: biochemical; details: compound at 0.1 µM; read-out: Inhibition rate CDK4/CycD3
CDK4/CycD3, sequence (P11802 whole entry): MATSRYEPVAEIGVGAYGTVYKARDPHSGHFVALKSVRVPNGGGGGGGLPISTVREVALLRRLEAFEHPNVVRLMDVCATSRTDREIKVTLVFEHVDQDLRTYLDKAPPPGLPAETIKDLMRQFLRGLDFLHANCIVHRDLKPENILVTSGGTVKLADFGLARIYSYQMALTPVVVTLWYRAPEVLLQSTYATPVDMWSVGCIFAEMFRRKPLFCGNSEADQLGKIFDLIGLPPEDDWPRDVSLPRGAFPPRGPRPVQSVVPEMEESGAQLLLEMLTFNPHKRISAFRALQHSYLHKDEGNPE
CDK4/CycD3, sequence (P30281 whole entry partner): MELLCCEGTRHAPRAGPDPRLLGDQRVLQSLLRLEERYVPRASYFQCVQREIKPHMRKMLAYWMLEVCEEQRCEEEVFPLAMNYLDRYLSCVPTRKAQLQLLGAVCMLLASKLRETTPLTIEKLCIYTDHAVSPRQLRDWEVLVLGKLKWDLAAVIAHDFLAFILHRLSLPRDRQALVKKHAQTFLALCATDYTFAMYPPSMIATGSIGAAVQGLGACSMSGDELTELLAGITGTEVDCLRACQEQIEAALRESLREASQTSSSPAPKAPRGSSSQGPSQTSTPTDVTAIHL
Method: as §3, §4, §5

CDK5/p25NCK = CDK5/p25NCK (Homo sapiens, UniProt Q00535); assay: CDK kinase selectivity (HTRF / ADP-Glo); type: biochemical; details: compound at 0.1 µM; read-out: Inhibition rate CDK5/p25NCK
CDK5/p25NCK, sequence (Q00535 whole entry): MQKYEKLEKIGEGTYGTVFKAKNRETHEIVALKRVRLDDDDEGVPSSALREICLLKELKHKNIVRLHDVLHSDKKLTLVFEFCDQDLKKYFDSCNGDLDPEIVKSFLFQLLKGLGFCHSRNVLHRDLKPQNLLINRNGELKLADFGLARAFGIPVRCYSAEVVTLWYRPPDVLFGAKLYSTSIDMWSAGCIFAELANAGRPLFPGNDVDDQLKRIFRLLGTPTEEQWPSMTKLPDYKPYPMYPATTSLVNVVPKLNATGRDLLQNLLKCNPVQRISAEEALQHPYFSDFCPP
CDK5/p25NCK, sequence (Q15078 99-307 partner limits assumed): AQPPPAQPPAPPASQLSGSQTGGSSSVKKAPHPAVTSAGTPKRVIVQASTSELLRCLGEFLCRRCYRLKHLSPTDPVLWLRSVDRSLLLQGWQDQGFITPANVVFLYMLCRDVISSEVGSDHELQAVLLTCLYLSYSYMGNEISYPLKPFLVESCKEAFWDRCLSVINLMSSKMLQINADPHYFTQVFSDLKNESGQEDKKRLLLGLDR
Method: as §3, §4, §5

CDK2/CycE1 = CDK2/CycE1 (Homo sapiens, UniProt P24941); assay: CDK kinase selectivity (HTRF / ADP-Glo); type: biochemical; details: compound at 0.1 µM; read-out: Inhibition rate CDK2/CycE1
Method: as §3, §4, §5

CDK1/CycB1 = CDK1/CycB1 (Homo sapiens, UniProt P06493); assay: CDK kinase selectivity (HTRF / ADP-Glo); type: biochemical; details: compound at 0.1 µM; read-out: Inhibition rate CDK1/CycB1
Method: as §3, §4, §5

CDK13/CyclinK = CDK13/CyclinK (Homo sapiens, UniProt Q14004); assay: CDK kinase selectivity (HTRF / ADP-Glo); type: biochemical; details: compound at 0.1 µM; read-out: Inhibition rate CDK13/CyclinK
CDK13/CyclinK, sequence (Q14004 whole entry): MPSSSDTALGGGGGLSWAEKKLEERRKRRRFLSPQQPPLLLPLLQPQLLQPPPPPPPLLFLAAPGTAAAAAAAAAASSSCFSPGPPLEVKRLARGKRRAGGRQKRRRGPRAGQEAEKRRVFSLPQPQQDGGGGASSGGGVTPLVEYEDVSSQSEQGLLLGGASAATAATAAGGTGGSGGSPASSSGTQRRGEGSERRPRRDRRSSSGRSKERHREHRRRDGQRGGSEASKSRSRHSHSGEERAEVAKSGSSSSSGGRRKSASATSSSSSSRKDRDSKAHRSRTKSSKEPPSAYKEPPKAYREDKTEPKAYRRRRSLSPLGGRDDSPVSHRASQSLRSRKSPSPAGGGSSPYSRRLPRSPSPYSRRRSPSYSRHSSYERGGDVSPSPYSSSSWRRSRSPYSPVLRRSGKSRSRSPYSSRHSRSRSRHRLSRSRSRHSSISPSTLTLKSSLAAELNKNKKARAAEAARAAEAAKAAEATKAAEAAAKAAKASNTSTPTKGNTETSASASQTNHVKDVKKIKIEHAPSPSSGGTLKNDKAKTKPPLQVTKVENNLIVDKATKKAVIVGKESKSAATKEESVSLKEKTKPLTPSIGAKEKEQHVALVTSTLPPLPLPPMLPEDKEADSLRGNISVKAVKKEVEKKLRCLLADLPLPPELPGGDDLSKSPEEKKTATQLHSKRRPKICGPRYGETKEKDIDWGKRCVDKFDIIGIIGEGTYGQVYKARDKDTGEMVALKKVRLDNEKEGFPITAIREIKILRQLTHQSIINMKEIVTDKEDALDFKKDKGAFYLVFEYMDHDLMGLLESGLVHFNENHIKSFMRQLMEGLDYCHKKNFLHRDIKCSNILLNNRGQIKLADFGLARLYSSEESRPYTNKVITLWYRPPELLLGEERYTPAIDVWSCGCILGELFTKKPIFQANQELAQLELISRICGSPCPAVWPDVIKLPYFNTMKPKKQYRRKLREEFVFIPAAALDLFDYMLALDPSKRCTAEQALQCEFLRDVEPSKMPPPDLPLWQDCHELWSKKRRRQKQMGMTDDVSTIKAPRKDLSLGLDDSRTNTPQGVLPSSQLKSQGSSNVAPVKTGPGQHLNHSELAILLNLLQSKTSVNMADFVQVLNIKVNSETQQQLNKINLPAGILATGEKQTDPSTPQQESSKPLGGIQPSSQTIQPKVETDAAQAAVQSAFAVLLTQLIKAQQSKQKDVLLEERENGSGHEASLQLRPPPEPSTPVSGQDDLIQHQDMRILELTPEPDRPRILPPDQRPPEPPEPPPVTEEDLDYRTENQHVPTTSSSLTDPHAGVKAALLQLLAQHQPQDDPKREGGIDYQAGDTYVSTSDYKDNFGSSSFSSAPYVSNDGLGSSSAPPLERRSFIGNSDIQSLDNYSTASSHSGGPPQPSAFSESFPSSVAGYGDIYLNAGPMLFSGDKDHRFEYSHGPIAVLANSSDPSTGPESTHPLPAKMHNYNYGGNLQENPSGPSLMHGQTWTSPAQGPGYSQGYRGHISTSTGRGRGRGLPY
CDK13/CyclinK, sequence (O75909 whole entry partner): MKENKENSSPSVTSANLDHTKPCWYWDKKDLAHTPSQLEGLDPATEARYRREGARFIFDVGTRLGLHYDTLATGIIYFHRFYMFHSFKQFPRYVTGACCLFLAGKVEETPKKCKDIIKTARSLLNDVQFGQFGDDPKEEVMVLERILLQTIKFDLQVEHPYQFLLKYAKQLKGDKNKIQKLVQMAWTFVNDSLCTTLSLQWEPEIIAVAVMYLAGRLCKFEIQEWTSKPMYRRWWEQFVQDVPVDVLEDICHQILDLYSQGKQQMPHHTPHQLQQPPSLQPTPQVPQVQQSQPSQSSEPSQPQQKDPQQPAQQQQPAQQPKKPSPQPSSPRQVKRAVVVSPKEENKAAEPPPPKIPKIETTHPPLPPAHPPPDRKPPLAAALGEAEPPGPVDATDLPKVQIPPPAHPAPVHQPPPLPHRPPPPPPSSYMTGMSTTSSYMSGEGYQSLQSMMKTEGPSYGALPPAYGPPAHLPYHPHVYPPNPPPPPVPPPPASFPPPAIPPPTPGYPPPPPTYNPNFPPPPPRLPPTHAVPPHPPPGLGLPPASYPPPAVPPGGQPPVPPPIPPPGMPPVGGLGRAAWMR
Method: as §3, §4, §5

CDK12/CyclinK = CDK12/CyclinK (Homo sapiens, UniProt Q9NYV4); assay: CDK kinase selectivity (HTRF / ADP-Glo); type: biochemical; details: compound at 0.1 µM; read-out: Inhibition rate CDK12/CyclinK
Method: as §3, §4, §5

CDK1/CycA2 = CDK1/CycA2 (Homo sapiens, UniProt P06493); assay: CDK kinase selectivity (HTRF / ADP-Glo); type: biochemical; details: compound at 0.1 µM; read-out: Inhibition rate CDK1/CycA2
Method: as §3, §4, §5

CDK18/CyclinY = CDK18/CyclinY (Homo sapiens, UniProt Q07002); assay: CDK kinase selectivity (HTRF / ADP-Glo); type: biochemical; details: compound at 0.1 µM; read-out: Inhibition rate CDK18/CyclinY
CDK18/CyclinY, sequence (Q07002 whole entry): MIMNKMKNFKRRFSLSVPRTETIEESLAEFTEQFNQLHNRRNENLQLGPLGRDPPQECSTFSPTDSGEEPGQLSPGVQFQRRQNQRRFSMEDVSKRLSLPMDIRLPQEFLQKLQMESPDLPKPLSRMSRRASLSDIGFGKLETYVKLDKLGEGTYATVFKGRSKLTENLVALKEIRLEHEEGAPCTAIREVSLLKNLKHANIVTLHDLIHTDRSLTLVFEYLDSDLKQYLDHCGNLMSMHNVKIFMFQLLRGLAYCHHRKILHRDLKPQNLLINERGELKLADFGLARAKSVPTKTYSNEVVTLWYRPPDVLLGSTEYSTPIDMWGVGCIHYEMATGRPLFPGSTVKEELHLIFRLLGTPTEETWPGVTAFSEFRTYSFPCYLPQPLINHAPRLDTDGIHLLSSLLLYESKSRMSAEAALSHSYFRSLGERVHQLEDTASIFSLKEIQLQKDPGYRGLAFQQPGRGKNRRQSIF
CDK18/CyclinY, sequence (Q8ND76 whole entry partner): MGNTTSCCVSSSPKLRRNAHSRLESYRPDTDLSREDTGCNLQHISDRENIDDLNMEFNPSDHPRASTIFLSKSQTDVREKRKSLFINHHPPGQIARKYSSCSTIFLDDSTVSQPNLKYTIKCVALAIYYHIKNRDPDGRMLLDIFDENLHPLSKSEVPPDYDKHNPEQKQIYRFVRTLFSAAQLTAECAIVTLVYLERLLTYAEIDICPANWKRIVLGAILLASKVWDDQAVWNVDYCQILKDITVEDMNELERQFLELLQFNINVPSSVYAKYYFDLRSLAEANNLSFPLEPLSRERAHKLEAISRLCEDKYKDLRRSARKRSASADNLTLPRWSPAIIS
Method: as §3, §4, §5

Work on `Clc1cnc2nc1NCCCCCNCc1cccc(c1)N2` [Compound 8, 1^5-chloro-2,5,11-triaza-1(2,4)-pyrimidina-3(1,3)-benzenacyclodecaphane] yielded an IC50 (A375) of less than 250 nM, an IC50 (HCC1187) of 250 to 1000 nM and an IC50 (Mia-Paca-2) of less than 250 nM. For the same molecule, the IC50 (MV-4-11) was less than 250 nM, the inhibition at 0.1 µM (CDK6/CycD3) was less than 50% and the inhibition at 0.1 µM (CDK19/CycC) was less than 50%. It also gave an inhibition at 0.1 µM (CDK2/CyCA2) of less than 50%, an inhibition at 0.1 µM (CDK4/CycD3) of 50 to 75% and an inhibition at 0.1 µM (CDK5/p25NCK) of 50 to 75%. For the same molecule, the inhibition at 0.1 µM (CDK2/CycE1) was 50 to 75%, the inhibition at 0.1 µM (CDK1/CycB1) was less than 50% and the inhibition at 0.1 µM (CDK13/CyclinK) was 50 to 75%. For the same molecule, the inhibition at 0.1 µM (CDK12/CyclinK) was 50 to 75%, the inhibition at 0.1 µM (CDK1/CycA2) was less than 50% and the inhibition at 0.1 µM (CDK18/CyclinY) was less than 50%.
